Reference: patent publication US10206394B2, “Herbicidal compounds” (Syngenta Participations AG, priority 2014, dated 2019)
Like-named read-outs stand apart in the source and are kept apart here.

Assays:
Assay in all cases: Glasshouse assay for herbicidal activity (pre- and post-emergence), percentage phytotoxicity
Type in all cases: in vivo
[1] = system: Avena fatua (AVEFA); settings: Avena fatua
Procedure, shortened: (§1)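 Damage was rated visually as percent phytotoxicity, 100% meaning total kill, 20 days after pre-emergence application (made one day post-sowing) or 15 days after post-emergence application (made about 12 days post-sowing). Plants were grown under 16 h light, 65% humidity, warm species 24/18° C, cool 20/16° C.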

[2] = system: Echinochloa crus-galli (ECHCG); settings: Echinochloa crus-galli
Procedure, shortened: as §1

[3] = system: Alopecurus myosuroides (ALOMY); settings: Alopecurus myosuroides
Procedure, shortened: as §1

[4] = system: Lolium perenne (LOLPE); settings: Lolium perenne
Procedure, shortened: as §1

[5] = post-emergence, 360 h, POST-emergence, rate 250 g/ha, visual score 15 DAA (100%=total damage, 0%=no damage), read-out: Post-emergence herbicidal activity (percentage phytotoxicity) AVEFA POST
[6] = pre-emergence, 480 h, PRE-emergence, rate 250 g/ha, visual score 20 DAA (100%=total damage, 0%=no damage), read-out: Pre-emergence herbicidal activity (percentage phytotoxicity) AVEFA PRE
[7] = post-emergence, 360 h, POST-emergence, rate 250 g/ha, visual score 15 DAA (100%=total damage, 0%=no damage), read-out: Post-emergence herbicidal activity (percentage phytotoxicity) ECHCG POST
[8] = pre-emergence, 480 h, PRE-emergence, rate 250 g/ha, visual score 20 DAA (100%=total damage, 0%=no damage), read-out: Pre-emergence herbicidal activity (percentage phytotoxicity) ECHCG PRE
[9] = post-emergence, 360 h, POST-emergence, rate 250 g/ha, visual score 15 DAA (100%=total damage, 0%=no damage), read-out: Post-emergence herbicidal activity (percentage phytotoxicity) ALOMY POST
[10] = pre-emergence, 480 h, PRE-emergence, rate 250 g/ha, visual score 20 DAA (100%=total damage, 0%=no damage), read-out: Pre-emergence herbicidal activity (percentage phytotoxicity) ALOMY PRE
[11] = post-emergence, 360 h, POST-emergence, rate 250 g/ha, visual score 15 DAA (100%=total damage, 0%=no damage), read-out: Post-emergence herbicidal activity (percentage phytotoxicity) LOLPE POST
[12] = pre-emergence, 480 h, PRE-emergence, rate 250 g/ha, visual score 20 DAA (100%=total damage, 0%=no damage), read-out: Pre-emergence herbicidal activity (percentage phytotoxicity) LOLPE PRE
[13] = post-emergence, 360 h, Rate 250 g/ha, post-emergence, visual assessment 15 DAA, 100%=total damage, 0%=no damage, read-out: Post-emergence herbicidal activity (percentage phytotoxicity) AVEFA POST
[14] = pre-emergence, 480 h, Rate 250 g/ha, pre-emergence, visual assessment 20 DAA, 100%=total damage, 0%=no damage, read-out: Pre-emergence herbicidal activity (percentage phytotoxicity) AVEFA PRE
[15] = post-emergence, 360 h, Rate 250 g/ha, post-emergence, visual assessment 15 DAA, 100%=total damage, 0%=no damage, read-out: Post-emergence herbicidal activity (percentage phytotoxicity) ECHCG POST
[16] = pre-emergence, 480 h, Rate 250 g/ha, pre-emergence, visual assessment 20 DAA, 100%=total damage, 0%=no damage, read-out: Pre-emergence herbicidal activity (percentage phytotoxicity) ECHCG PRE
[17] = post-emergence, 360 h, Rate 250 g/ha, post-emergence, visual assessment 15 DAA, 100%=total damage, 0%=no damage, read-out: Post-emergence herbicidal activity (percentage phytotoxicity) ALOMY POST
[18] = pre-emergence, 480 h, Rate 250 g/ha, pre-emergence, visual assessment 20 DAA, 100%=total damage, 0%=no damage, read-out: Pre-emergence herbicidal activity (percentage phytotoxicity) ALOMY PRE
[19] = post-emergence, 360 h, Rate 250 g/ha, post-emergence, visual assessment 15 DAA, 100%=total damage, 0%=no damage, read-out: Post-emergence herbicidal activity (percentage phytotoxicity) LOLPE POST
[20] = pre-emergence, 480 h, Rate 250 g/ha, pre-emergence, visual assessment 20 DAA, 100%=total damage, 0%=no damage, read-out: Pre-emergence herbicidal activity (percentage phytotoxicity) LOLPE PRE

| SMILES | pest or weed control at 250 g/ha [1, 5] [%] | pest or weed control at 250 g/ha [1, 6] [%] | pest or weed control at 250 g/ha [2, 7] [%] | pest or weed control at 250 g/ha [2, 8] [%] | pest or weed control at 250 g/ha [3, 9] [%] | pest or weed control at 250 g/ha [3, 10] [%] | pest or weed control at 250 g/ha [4, 11] [%] | pest or weed control at 250 g/ha [4, 12] [%] | pest or weed control at 250 g/ha [1, 13] [%] | pest or weed control at 250 g/ha [1, 14] [%] | pest or weed control at 250 g/ha [2, 15] [%] | pest or weed control at 250 g/ha [2, 16] [%] | pest or weed control at 250 g/ha [3, 17] [%] | pest or weed control at 250 g/ha [3, 18] [%] | pest or weed control at 250 g/ha [4, 19] [%] | pest or weed control at 250 g/ha [4, 20] [%] |
| --- | --- | --- | --- | --- | --- | --- | --- | --- | --- | --- | --- | --- | --- | --- | --- | --- |
| C=CC(C)NC(=O)CC1CC(=O)C(c2c(C)cc(-c3ncc(F)cn3)cc2C)C1=O (centres unmarked) [Compound B328] | 100 | 100 | 100 | 100 | 100 | 100 | 100 | 100 | – | – | – | – | – | – | – | – |
| COCC(C)(C)NC(=O)CC1CC(=O)C(c2c(C)cc(-c3ncc(F)cc3F)cc2C)C1=O (centres unmarked) [Compound B329] | 100 | 80 | 100 | 100 | 100 | 100 | 100 | 100 | – | – | – | – | – | – | – | – |
| C=CC(C)NC(=O)CC1CC(=O)C(c2c(C)cc(-c3ncc(F)cc3F)cc2C)C1=O (centres unmarked) [Compound B330] | 100 | 100 | 100 | 100 | 100 | 100 | 100 | 100 | – | – | – | – | – | – | – | – |
| Cc1cc(-c2ncc(F)cn2)cc(C)c1C1C(=O)CC(CC(=O)N(C)C(C)(C)C)C1=O (centres unmarked) [Compound B331] | 100 | 90 | 100 | 100 | 90 | 100 | 100 | 100 | – | – | – | – | – | – | – | – |
| COCC(C)NC(=O)CC1CC(=O)C(c2c(C)cc(-c3ncc(F)cn3)cc2C)C1=O (centres unmarked) [Compound B332] | 100 | 100 | 100 | 100 | 100 | 100 | 100 | 100 | – | – | – | – | – | – | – | – |
| C#CCNC(=O)CC1CC(=O)C(c2c(C)cc(-c3ncc(F)cn3)cc2C)C1=O (centres unmarked) [Compound B333] | 40 | 100 | 100 | 100 | 100 | 100 | 90 | 100 | – | – | – | – | – | – | – | – |
| C#CCN(C)C(=O)CC1CC(=O)C(c2c(C)cc(-c3ncc(F)cn3)cc2C)C1=O (centres unmarked) [Compound B334] | – | – | – | – | – | – | – | – | 100 | 100 | 100 | 100 | 100 | 100 | 90 | 100 |
| COCC(C)NC(=O)CC1CC(=O)C(c2c(C)cc(-c3ncc(F)cc3F)cc2C)C1=O (centres unmarked) [Compound B335] | – | – | – | – | – | – | – | – | 100 | 100 | 100 | 90 | 100 | 100 | 100 | 100 |
| C#CCNC(=O)CC1CC(=O)C(c2c(C)cc(-c3ncc(F)cc3F)cc2C)C1=O (centres unmarked) [Compound B336] | – | – | – | – | – | – | – | – | 100 | 100 | 100 | 100 | 100 | 100 | 100 | 100 |
| Cc1cc(-c2ncc(Cl)cn2)cc(C)c1C1C(=O)CC(CC(=O)NCc2cccc(F)c2)C1=O (centres unmarked) [Compound B337] | – | – | – | – | – | – | – | – | 100 | 90 | 100 | 90 | 100 | 90 | 100 | 90 |
